Structures are written as SMILES.

The target of the experiment is T1, human TRPM8 (Homo sapiens, UniProt Q7Z2W7).
T1 construct: expressed in transfected cells; host or cells: Chinese hamster ovary (CHO) cells, T-REx tetracycline-inducible system, co-transfected with aequorin
The experiment is described as follows: Luminescence readout assay for measuring intracellular calcium, icilin activation. Type of experiment: cell-based. Conditions: CHO cells expressing human TRPM8, aequorin luminescence, 1 μM icilin activation; read-out: hTRPM8 IC50. The procedure:
Luminescence Readout Assay for Measuring Intracellular Calcium.
A stable Chinese hamster ovary cell line expressing human TRPM8 was generated using tetracycline inducible T-REx™ expression system from Invitrogen, Inc. (Carlsbad, Calif.). […] Twenty four hours before the assay, cells were seeded in 96-well plates and TRPM8 expression was induced with 0.5 μg/mL tetracycline. […] Potential antagonists were added 2.5 min prior to the addition of agonist, 1 μM icilin, 100 μM L-menthol, or 1 min prior to the addition of cold buffer (<10° C.). The luminescence was measured by a CCD camera based FLASH-luminometer built by Amgen, Inc. A cooling device attached to FLASH luminometer was used for cold activation.

T1 sequence (Q7Z2W7 whole entry): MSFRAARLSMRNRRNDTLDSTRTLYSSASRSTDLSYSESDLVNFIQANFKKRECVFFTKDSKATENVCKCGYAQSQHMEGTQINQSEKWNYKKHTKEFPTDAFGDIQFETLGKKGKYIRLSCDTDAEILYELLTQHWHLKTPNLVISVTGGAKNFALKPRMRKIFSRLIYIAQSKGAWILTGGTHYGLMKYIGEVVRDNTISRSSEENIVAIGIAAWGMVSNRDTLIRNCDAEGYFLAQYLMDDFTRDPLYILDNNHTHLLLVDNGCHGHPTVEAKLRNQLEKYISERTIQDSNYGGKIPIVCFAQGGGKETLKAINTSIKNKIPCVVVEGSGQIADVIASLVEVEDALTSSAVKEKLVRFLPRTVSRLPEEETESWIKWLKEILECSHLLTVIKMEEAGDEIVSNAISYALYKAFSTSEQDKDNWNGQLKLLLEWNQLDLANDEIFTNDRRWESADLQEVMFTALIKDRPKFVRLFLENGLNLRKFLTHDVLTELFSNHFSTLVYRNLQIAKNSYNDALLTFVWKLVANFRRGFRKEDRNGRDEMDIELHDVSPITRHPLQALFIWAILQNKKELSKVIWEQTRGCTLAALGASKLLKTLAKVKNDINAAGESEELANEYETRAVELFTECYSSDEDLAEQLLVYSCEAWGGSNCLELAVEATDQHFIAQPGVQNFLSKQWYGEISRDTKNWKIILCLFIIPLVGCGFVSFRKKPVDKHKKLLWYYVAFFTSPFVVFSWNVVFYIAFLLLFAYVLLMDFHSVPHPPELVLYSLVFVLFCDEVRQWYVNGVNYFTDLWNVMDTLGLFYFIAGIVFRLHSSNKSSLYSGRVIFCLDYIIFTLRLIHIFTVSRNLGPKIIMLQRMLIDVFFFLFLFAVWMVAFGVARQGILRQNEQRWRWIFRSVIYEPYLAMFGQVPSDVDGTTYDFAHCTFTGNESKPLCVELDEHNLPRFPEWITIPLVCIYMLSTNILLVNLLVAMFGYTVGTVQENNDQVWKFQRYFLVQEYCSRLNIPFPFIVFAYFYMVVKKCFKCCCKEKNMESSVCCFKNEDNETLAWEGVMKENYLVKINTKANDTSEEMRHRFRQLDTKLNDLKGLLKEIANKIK

As to `O=C(Cc1ccncc1)N[C@@H](c1ccc(OC(F)(F)F)c(F)c1)c1ncccc1F` [Example 290, (S)-N-((3-fluoro-4-(trifluoromethoxy)phenyl)(3-fluoropyridin-2-yl)methyl)-2-(pyridin-4-yl)acetamide], the IC50 came to 944 nM. The result for `O=C(N[C@@H](c1ccc(C(F)(F)F)cc1)c1ncccc1C(F)(F)F)[C@H]1CC[C@@H](CO)CC1` [Example 241, (1s,4R)-4-(hydroxymethyl)-N-((S)-(4-(trifluoromethyl)phenyl)(3-(trifluoromethyl)pyridin-2-yl)methyl)cyclohexanecarboxamide] reads 590 nM; that for `O=C(N[C@@H](c1ccc(C(F)(F)F)c(F)c1)c1ncccc1C(F)(F)F)[C@@H]1CCCO1` [Example 119, (S)-N-((S)-(3-fluoro-4-(trifluoromethyl)phenyl)(3-(trifluoromethyl)pyridin-2-yl)methyl)THF-2-carboxamide], 100 nM; that for `O=C(N[C@@H](c1ccc(OC(F)(F)F)c(F)c1)c1ncccc1F)c1ccc(=O)n(CC2(O)CC2)c1` [Example 407, (S)-N-((3-fluoro-4-(trifluoromethoxy)phenyl)(3-fluoropyridin-2-yl)methyl)-1-((1-hydroxycyclopropyl)methyl)-6-oxo-1,6-dihydropyridine-3-carboxamide], 59.6 nM.

Turning to `O=C(CN1CCOC1=O)N[C@@H](c1ccc(C(F)(F)F)cc1)c1ncccc1C(F)(F)F` [Example 154, (S)-2-(2-oxooxazolidin-3-yl)-N-((4-(trifluoromethyl)phenyl)(3-(trifluoromethyl)pyridin-2-yl)methyl)acetamide], the IC50 amounted to 2530 nM.

For `O=C(N[C@@H](c1ccc(C(F)(F)F)cc1)c1ncccc1C(F)(F)F)c1ccc(I)cc1` [Example 122, (S)-4-iodo-N-((4-(trifluoromethyl)phenyl)(3-(trifluoromethyl)pyridin-2-yl)methyl)benzamide], the IC50 was 107 nM. The result for `O=C(N[C@@H](c1ccc(C(F)(F)F)c(F)c1)c1ncccc1C(F)(F)F)c1cnccn1` [Example 111, (S)-N-((3-fluoro-4-(trifluoromethyl)phenyl)(3-(trifluoromethyl)pyridin-2-yl)methyl)pyrazine-2-carboxamide] reads 55.9 nM; that for `O=C(N[C@@H](c1ccc(C(F)(F)F)cc1)c1ccccn1)c1ccc(=O)[nH]c1` [Example 201, (S)-6-oxo-N-(pyridin-2-yl(4-(trifluoromethyl)phenyl)methyl)-1,6-dihydropyridine-3-carboxamide 2,2,2-trifluoroacetate], 29.3 nM.

For `O=C(N[C@@H](c1ccc(C(F)(F)F)cc1)c1ccccc1Br)c1ccc2ncccc2c1` [Example 256, (S)-N-((2-bromophenyl)(4-(trifluoromethyl)phenyl)methyl)quinoline-6-carboxamide 2,2,2-trifluoro acetate, 2,2,2-trifluoroacetate], the IC50 was 302 nM. The result for `CC#Cc1cccnc1[C@@H](NC(=O)c1ccc2ncccc2c1)c1ccc(C(F)(F)F)cc1` [Example 93, (S)-N-((3-(prop-1-yn-1-yl)pyridin-2-yl)(4-(trifluoromethyl)phenyl)methyl)quinoline-6-carboxamide] reads 17.8 nM; that for `O=C(N[C@@H](c1ccc(C(F)(F)F)cc1)c1ncccc1F)c1ccc2[nH]cnc2c1` [Example 392, (S)-N-((3-fluoropyridin-2-yl)(4-(trifluoromethyl)phenyl)methyl)-1H-benzo[d]imidazole-5-carboxamide], 7.6 nM; that for `O=C(N[C@@H](c1ccc(C(F)(F)F)cc1)c1ncccc1C(F)(F)F)c1ccc2nccn2c1` [Example 254, (S)-N-((4-(trifluoromethyl)phenyl)(3-(trifluoromethyl)pyridin-2-yl)methyl)imidazo[1,2-a]pyridine-6-carboxamide 2,2,2-trifluoroacetate], 11.8 nM. The result for `O=C(N[C@@H](c1ccc(C(F)(F)F)cc1)c1ncccc1C(F)(F)F)c1cc2ccccc2s1` [Example 222, (S)-N-((4-(trifluoromethyl)phenyl)(3-(trifluoromethyl)pyridin-2-yl)methyl)benzo[b]thiophene-2-carboxamide] reads 119 nM; that for `O=C(N[C@@H](c1ccc(C(F)(F)F)cc1)c1ncccc1F)c1n[nH]c2c1CCCC2` [Example 322, (S)-N-((3-fluoropyridin-2-yl)(4-(trifluoromethyl)phenyl)methyl)-4,5,6,7-tetrahydro-1H-indazole-3-carboxamide], 202 nM. The result for `Cc1ccc(C(NC(=O)c2ccc(=O)[nH]c2)c2ccc(OC(F)(F)F)c(F)c2)nc1` (stereo not shown) [Example 424, N-((3-fluoro-4-(trifluoromethoxy)phenyl)(5-methylpyridin-2-yl)methyl)-6-oxo-1,6-dihydropyridine-3-carboxamide] reads 92 nM; that for `Cc1cc([C@H](NC(=O)c2ccc(=O)[nH]c2)c2ncccc2F)ccc1OC(F)(F)F` [Example 381, (S)-N-((3-fluoropyridin-2-yl)(3-methyl-4-(trifluoromethoxy)phenyl)methyl)-6-oxo-1,6-dihydropyridine-3-carboxamide], 10.4 nM. On to `Cn1cc(C(=O)N[C@@H](c2ccc(OC(F)(F)F)cc2)c2ccccn2)ccc1=O` [Example 378, (S)-1-methyl-6-oxo-N-(pyridin-2-yl(4-(trifluoromethoxy)phenyl)methyl)-1,6-dihydropyridine-3-carboxamide], for which the IC50 amounted to 50.3 nM. With `COc1ccc(C(=O)N[C@@H](c2ccc(C(F)(F)F)cc2)c2ncccc2C(F)(F)F)nc1` [Example 210, (S)-5-methoxy-N-((4-(trifluoromethyl)phenyl)(3-(trifluoromethyl)pyridin-2-yl)methyl)picolinamide], the IC50 turned out to be 150 nM.

For `COc1ncc(C(=O)N[C@@H](c2ccc(C(F)(F)F)cc2)c2ncccc2C(F)(F)F)cn1` [Example 42, (S)-2-methoxy-N-((4-(trifluoromethyl)phenyl)(3-(trifluoromethyl)pyridin-2-yl)methyl)pyrimidine-5-carboxamide], the IC50 turned out to be 53.9 nM. The result for `O=C(N[C@@H](c1ccc(C(F)(F)F)cc1)c1ncccc1C(F)(F)F)c1ccc2c(c1)CNC2=O` [Example 271, (S)-1-Oxo-N-((4-(trifluoromethyl)phenyl)(3-(trifluoromethyl)-pyridin-2-yl)methyl)isoindoline-5-carboxamide] reads 8.9 nM. Take `CC(=O)Nc1ccc(C(=O)N[C@@H](c2ccc(OC(F)(F)F)c(F)c2)c2ncccc2F)cc1O` [Example 390, (S)-4-acetamido-N-((3-fluoro-4-(trifluoromethoxy)phenyl)(3-fluoropyridin-2-yl)methyl)-3-hydroxybenzamide]: the IC50 amounted to 136 nM. The result for `O=C(N[C@@H](c1ccc(Cl)c(Cl)c1)c1ncccc1C(F)(F)F)c1ccc(=O)[nH]c1` [Example 3, (S)-N-((3,4-dichlorophenyl)(3-(trifluoromethyl)pyridin-2-yl)methyl)-6-hydroxynicotinamide] reads 17.7 nM; that for `O=C(N[C@@H](c1ccc(C(F)(F)F)cc1)c1ncccc1C(F)(F)F)c1ccc[nH]c1=O` [Example 59, (S)-2-oxo-N-((4-(trifluoromethyl)phenyl)(3-(trifluoromethyl)pyridin-2-yl)methyl)-1,2-dihydropyridine-3-carboxamide], 41.6 nM; that for `O=C(N[C@@H](c1ccc(C(F)(F)F)cc1)c1ncccc1C(F)(F)F)c1cccc(I)c1` [Example 117, (S)-3-iodo-N-((4-(trifluoromethyl)phenyl)(3-(trifluoromethyl)pyridin-2-yl)methyl)benzamide], 70 nM. The value for `O=C(N[C@@H](c1ccc(OC(F)(F)F)cc1)c1ncccc1F)c1cc2n(n1)CCCO2` [Example 356, (S)-N-((3-fluoropyridin-2-yl)(4-(trifluoromethoxy)phenyl)methyl)-6,7-dihydro-5H-pyrazolo[5,1-b][1,3]oxazine-2-carboxamide] was 78.4 nM; that for `O=C(N[C@@H](c1ccc(C(F)(F)F)cc1)c1ncccc1F)c1ccccc1` [Example 180, (S)-N-((3-fluoropyridin-2-yl)(4-(trifluoromethyl)phenyl)methyl)benzamide] was 29.7 nM. Turning to `O=C(N[C@@H](c1ccc(Cl)c(F)c1)c1ncccc1F)c1ccc(=O)[nH]c1` [Example 344, (S)-N-((4-chloro-3-fluorophenyl)(3-fluoropyridin-2-yl)methyl)-6-oxo-1,6-dihydropyridine-3-carboxamide], the IC50 is 45.1 nM.

Turning to `O=C(N[C@@H](c1ccc(Cl)c(Cl)c1)c1ncccc1C(F)(F)F)c1ccc2cccnc2c1` [Example 10], the IC50 stood at 20.5 nM. Consider `Cn1cc(C(=O)N[C@@H](c2ccc(F)cc2)c2ncccc2F)ccc1=O` [Example 341, (S)-N-((4-fluorophenyl)(3-fluoropyridin-2-yl)methyl)-1-methyl-6-oxo-1,6-dihydropyridine-3-carboxamide], for which the IC50 was determined as 4280 nM. The value for `O=C(N[C@@H](c1ccc(C(F)(F)F)cc1)c1ncccc1C(F)(F)F)c1ccc2c(c1)C(=O)N(c1ccccn1)C2=O` [Example 99, (S)-1,3-dioxo-2-(pyridin-2-yl)-N-((4-(trifluoromethyl)phenyl)(3-(trifluoromethyl)pydin-2-yl)methyl)isoindoline-5-carboxamide 2,2,2-trifluoroacetate] was 129 nM; that for `O=C(N[C@@H](c1ccc(C(F)(F)F)cc1)c1ncccc1C(F)(F)F)c1ccc2nccc(Cl)c2c1` [Example 116, (S)-4-chloro-N-((4-(trifluoromethyl)phenyl)(3-(trifluoromethyl)pyridin-2-yl)methyl)quinoline-6-carboxamide 2,2,2-trifluoroacetate] was 42.9 nM.

Source of the values: US8710043B2, “TRPM8 antagonists and their use in treatments” (Amgen Inc., priority 2011, dated 2014).
